Reference: patent US10894784B2, “Heteroarylbenzimidazole compounds” (BAYER PHARMA AKTIENGESELLSCHAFT, priority 2015, dated 2021)

Target: TBK1 (Homo sapiens (Human), UniProt Q9UHD2)
Assay: TBK1 low ATP kinase assay (in vitro assay 1)
Type: biochemical
Details: TBK1 low ATP kinase assay IC50, in vitro assay 1

Chain of TBK1 (Q9UHD2 whole entry): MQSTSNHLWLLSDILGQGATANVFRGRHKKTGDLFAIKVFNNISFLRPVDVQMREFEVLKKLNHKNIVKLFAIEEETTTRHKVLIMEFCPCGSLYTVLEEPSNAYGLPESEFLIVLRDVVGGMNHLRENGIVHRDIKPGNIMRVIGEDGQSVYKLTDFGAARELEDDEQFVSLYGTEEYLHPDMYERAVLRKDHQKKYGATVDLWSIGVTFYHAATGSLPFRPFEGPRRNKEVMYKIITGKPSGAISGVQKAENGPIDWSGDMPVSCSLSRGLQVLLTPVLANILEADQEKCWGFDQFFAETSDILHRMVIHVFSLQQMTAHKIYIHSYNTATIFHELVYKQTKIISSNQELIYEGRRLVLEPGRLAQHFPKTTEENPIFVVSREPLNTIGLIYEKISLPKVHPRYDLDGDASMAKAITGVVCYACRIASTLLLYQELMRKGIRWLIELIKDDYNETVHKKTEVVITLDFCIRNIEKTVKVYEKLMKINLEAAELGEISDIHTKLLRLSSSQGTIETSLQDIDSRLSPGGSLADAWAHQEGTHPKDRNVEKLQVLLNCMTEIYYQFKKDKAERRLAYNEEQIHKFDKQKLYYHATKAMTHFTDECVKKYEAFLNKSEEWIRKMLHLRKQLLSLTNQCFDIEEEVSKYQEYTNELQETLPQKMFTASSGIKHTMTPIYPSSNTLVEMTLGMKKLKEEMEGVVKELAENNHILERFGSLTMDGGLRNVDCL

IC50	SMILES
1.8 nM	CC(c1ccnc(Nc2nc3ccc(-c4cnn(CC5CC5)c4)cc3[nH]2)c1)N1CCN(C(=O)CC(F)(F)F)CC1 (single isomer, unassigned) [Example 39.02.02, 1-(4-{(1R or 1S)-1-[2-({6-[1-(cyclopropylmethyl)-1H-pyrazol-4-yl]-1H-benzimidazol-2-yl}amino)pyridin-4-yl]ethyl}piperazin-1-yl)-3,3,3-trifluoropropan-1-one]

Same assay, conditions: in vitro assay 1, read-out: TBK1 low ATP kinase assay IC50

SMILES	IC50
CC(c1ccnc(Nc2nc3ccc(-c4cnn(CC5CC5)c4)cc3[nH]2)c1)N1CCN(C(=O)OC(C)(C)C)CC1 (single isomer, unassigned) [Example 39.02.01, tert-butyl 4-{(1R or 1S)-1-[2-({6-[1-(cyclopropylmethyl)-1H-pyrazol-4-yl]-1H-benzimidazol-2-yl}amino)pyridin-4-yl]ethyl}piperazine-1-carboxylate]	8.61 nM
CC(c1ccnc(Nc2nc3ccc(-c4cnn(CC5CC5)c4)cc3[nH]2)c1)N1CCN(C(=O)C2CC2)CC1 (single isomer, unassigned) [Example 39.02.03, cyclopropyl(4-{(1R or 1S)-1-[2-({6-[1-(cyclopropylmethyl)-1H-pyrazol-4-yl]-1H-benzimidazol-2-yl}amino)pyridin-4-yl]ethyl}piperazin-1-yl)methanone]	1.66 nM
CC(c1ccnc(Nc2nc3ccc(-c4cnn(CC5CC5(F)F)c4)cc3[nH]2)c1)N1CCN(C(=O)OC(C)(C)C)CC1 (single isomer, unassigned) [Example 55.01.01, tert-butyl 4-[(1R or 1S)-1-(2-{[6-(1-{[(1R or 1S)-2,2-difluorocyclopropyl]methyl}-1H-pyrazol-4-yl)-1H-benzimidazol-2-yl]amino}pyridin-4-yl)ethyl]piperazine-1-carboxylate]	5.5 nM
CC(c1ccnc(Nc2nc3ccc(-c4cnn(CC5CC5(F)F)c4)cc3[nH]2)c1)N1CCN(C(=O)OC(C)(C)C)CC1 (single isomer, unassigned) [Example 55.01.02, tert-butyl 4-[(1R or 1S)-1-(2-{[6-(1-{[(1R or 1S)-2,2-difluorocyclopropyl]methyl}-1H-pyrazol-4-yl)-1H-benzimidazol-2-yl]amino}pyridin-4-yl)ethyl]piperazine-1-carboxylate]	4.8 nM
CC(c1ccnc(Nc2nc3ccc(-c4cnn(CC5CC5(F)F)c4)cc3[nH]2)c1)N1CCN(C(=O)CC(F)(F)F)CC1 (single isomer, unassigned) [Example 55.02.01, 1-{4-[(1R or 1S)-1-(2-{[6-(1-{[(1R or IS)-2,2-difluorocyclopropyl]methyl}-1H-pyrazol-4-yl)-1H-benzimidazol-2-yl]amino}pyridin-4-yl)ethyl]piperazin-1-yl}-3,3,3-trifluoropropan-1-one]	0.72 nM
CC(c1ccnc(Nc2nc3ccc(-c4cnn(CC5CC5(F)F)c4)cc3[nH]2)c1)N1CCN(C(=O)CC(F)(F)F)CC1 (single isomer, unassigned) [Example 55.02.02, 1-{4-[(1R or 1S)-1-(2-{[6-(1-{[(1R or IS)-2,2-difluorocyclopropyl]methyl}-1H-pyrazol-4-yl)-1H-benzimidazol-2-yl]amino}pyridin-4-yl)ethyl]piperazin-1-yl}-3,3,3-trifluoropropan-1-one]	1.3 nM
CC(c1ccnc(Nc2nc3ccc(-c4cnn(CC5CC5(F)F)c4)cc3[nH]2)c1)N1CCN(C(=O)C2CC2)CC1 (single isomer, unassigned) [Example 55.03.01, cyclopropyl{4-[(1R or 1S)-1-(2-{[6-(1-{[(1R or 1S)-2,2-difluorocyclopropyl]methyl}-1H-pyrazol-4-yl)-1H-benzimidazol-2-yl]amino}pyridin-4-yl)ethyl]piperazin-1-yl}methanone]	0.61 nM
CC(c1ccnc(Nc2nc3ccc(-c4cnn(CC5CC5(F)F)c4)cc3[nH]2)c1)N1CCN(C(=O)C2CC2)CC1 (single isomer, unassigned) [Example 55.03.02, cyclopropyl{4-[(1R or 1S)-1-(2-{[6-(1-{[(1R or 1S)-2,2-difluorocyclopropyl]methyl}-1H-pyrazol-4-yl)-1H-benzimidazol-2-yl]amino}pyridin-4-yl)ethyl]piperazin-1-yl}methanone]	0.66 nM
CC(c1ccnc(Nc2nc3ccc(-c4cnn(CC5CCC5)c4)cc3[nH]2)c1)N1CCN(C(=O)OC(C)(C)C)CC1 (single isomer, unassigned) [Example 59.01.01, tert-butyl 4-{(1R or 1S)-1-[2-({6-[1-(cyclobutylmethyl)-1H-pyrazol-4-yl]-1H-benzimidazol-2-yl}amino)pyridin-4-yl]ethyl}piperazine-1-carboxylate]	14.2 nM
CC(c1ccnc(Nc2nc3ccc(-c4cnn(CC5CCC5)c4)cc3[nH]2)c1)N1CCN(C(=O)C2CC2)CC1 (single isomer, unassigned) [Example 59.01.03, (4-{(1R or 1S)-1-[2-({6-[1-(cyclobutylmethyl)-1H-pyrazol-4-yl]-1H-benzimidazol-2-yl}amino)pyridin-4-yl]ethyl}piperazin-1-yl)(cyclopropyl)methanone]	2.59 nM

Further lines, results first:

IC50	SMILES
2.13 nM	CC(C)Oc1cncnc1-c1ccc2nc(Nc3cc(C(C)N4CCN(C(=O)C5CC5)CC4)ccn3)[nH]c2c1 (single isomer, unassigned) [Example 36.03, cyclopropyl(4-{(1R or 1S)-1-[2-({6-[5-(propan-2-yloxy)pyrimidin-4-yl]-1H-benzimidazol-2-yl}amino)pyridin-4-yl]ethyl}piperazin-1-yl)methanone]
2.5 nM	CC(C)Oc1cncnc1-c1ccc2nc(Nc3cc(C(C)N4CCN(C(=O)C5CCC5)CC4)ccn3)[nH]c2c1 (single isomer, unassigned) [Example 36.04, cyclobutyl(4-{(1R or 1S)-1-[2-({6-[5-(propan-2-yloxy)pyrimidin-4-yl]-1H-benzimidazol-2-yl}amino)pyridin-4-yl]ethyl}piperazin-1-yl)methanone]
4.05 nM	CC(c1ccnc(Nc2nc3ccc(-c4cnn(CC5CC5(F)F)c4)cc3[nH]2)c1)N1CCN(C(=O)OC(C)(C)C)CC1 (single isomer, unassigned) [Example 55.01, tert-butyl 4-[(1R or 1S)-1-(2-{[6-(1-{[(1RS)-2,2-difluorocyclopropyl]methyl}-1H-pyrazol-4-yl)-1H-benzimidazol-2-yl]amino}pyridin-4-yl)ethyl]piperazine-1-carboxylate]
1.06 nM	CC(c1ccnc(Nc2nc3ccc(-c4cnn(CC5CC5(F)F)c4)cc3[nH]2)c1)N1CCN(C(=O)CC(F)(F)F)CC1 (single isomer, unassigned) [Example 55.02, 1-{4-[(1R or 1S)-1-(2-{[6-(1-{[(1RS)-2,2-difluorocyclopropyl]methyl}-1H-pyrazol-4-yl)-1H-benzimidazol-2-yl]amino}pyridin-4-yl)ethyl]piperazin-1-yl}-3,3,3-trifluoropropan-1-one]
0.564 nM	CC(c1ccnc(Nc2nc3ccc(-c4cnn(CC5CC5(F)F)c4)cc3[nH]2)c1)N1CCN(C(=O)C2CC2)CC1 (single isomer, unassigned) [Example 55.03, cyclopropyl{4-[(1R or 1S)-1-(2-{[6-(1-{[(1RS)-2,2-difluorocyclopropyl]methyl}-1H-pyrazol-4-yl)-1H-benzimidazol-2-yl]amino}pyridin-4-yl)ethyl]piperazin-1-yl}methanone]
16.5 nM	CC1CC1Cn1cc(-c2ccc3nc(Nc4cc(C(C)N5CCN(C(=O)OC(C)(C)C)CC5)ccn4)[nH]c3c2)cn1 (single isomer, unassigned) [Example 56.01, tert-butyl 4-[(1R or 1S)-1-(2-{[6-(1-{[(1RS,2RS)-2-methylcyclopropyl]methyl}-1H-pyrazol-4-yl)-1H-benzimidazol-2-yl]amino}pyridin-4-yl)ethyl]piperazine-1-carboxylate]
7.83 nM	CC(c1ccnc(Nc2nc3ccc(-c4cn[nH]c4)cc3[nH]2)c1)N1CCN(C(=O)OC(C)(C)C)CC1 (single isomer, unassigned) [Example 57.01, tert-butyl 4-[(1R or 1S)-1-(2-{[6-(1H-pyrazol-4-yl)-1H-benzimidazol-2-yl]amino}pyridin-4-yl)ethyl]piperazine-1-carboxylate]
46 nM	CC(c1ccnc(Nc2nc3ccc(-c4cnn(CC5CC5(C)C)c4)cc3[nH]2)c1)N1CCN(C(=O)OC(C)(C)C)CC1 (single isomer, unassigned) [Example 67.01, tert-butyl 4-[(1R or 1S)-1-(2-{[6-(1-{[(1RS)-2,2-dimethylcyclopropyl]methyl}-1H-pyrazol-4-yl)-1H-benzimidazol-2-yl]amino}pyridin-4-yl)ethyl]piperazine-1-carboxylate]
2.9 nM	CC(c1ccnc(Nc2nc3ccc(-c4cnn(CC5CC5(C)C)c4)cc3[nH]2)c1)N1CCN(C(=O)CC(F)(F)F)CC1 (single isomer, unassigned) [Example 67.02, 1-{4-[(1R or 1S)-1-(2-{[6-(1-{[(1RS)-2,2-dimethylcyclopropyl]methyl}-1H-pyrazol-4-yl)-1H-benzimidazol-2-yl]amino}pyridin-4-yl)ethyl]piperazin-1-yl}-3,3,3-trifluoropropan-1-one]
2 nM	CC(c1ccnc(Nc2nc3ccc(-c4cnn(CC5CC5(C)C)c4)cc3[nH]2)c1)N1CCN(C(=O)C2CC2)CC1 (single isomer, unassigned) [Example 67.03, cyclopropyl{4-[(1R or 1S)-1-(2-{[6-(1-{[(1RS)-2,2-dimethylcyclopropyl]methyl}-1H-pyrazol-4-yl)-1H-benzimidazol-2-yl]amino}pyridin-4-yl)ethyl]piperazin-1-yl}methanone]
26 nM	CC(c1ccnc(Nc2nc3ccc(-c4cnn(CC5(C)CC5)c4)cc3[nH]2)c1)N1CCN(C(=O)OC(C)(C)C)CC1 (single isomer, unassigned) [Example 68.01, tert-butyl 4-[(1R or 1S)-1-{2-[(6-{1-[(1-methylcyclopropyl)methyl]-1H-pyrazol-4-yl}-1H-benzimidazol-2-yl)amino]pyridin-4-yl}ethyl]piperazine-1-carboxylate]
